Test results from ChEMBL document CHEMBL1765075, “Discovery and structure-activity relationship of 3-aminopyrid-2-ones as potent and selective interleukin-2 inducible T-cell kinase (Itk) inhibitors” (J Med Chem, 2011).

How the values were obtained:
[1] = molecular target: T1, Tyrosine-protein kinase ITK/TSK (Homo sapiens, UniProt Q08881); experiment: Inhibition of Itk after 40 mins by radiometric phosphate incorporation assay
T1 sequence (Q08881 whole entry): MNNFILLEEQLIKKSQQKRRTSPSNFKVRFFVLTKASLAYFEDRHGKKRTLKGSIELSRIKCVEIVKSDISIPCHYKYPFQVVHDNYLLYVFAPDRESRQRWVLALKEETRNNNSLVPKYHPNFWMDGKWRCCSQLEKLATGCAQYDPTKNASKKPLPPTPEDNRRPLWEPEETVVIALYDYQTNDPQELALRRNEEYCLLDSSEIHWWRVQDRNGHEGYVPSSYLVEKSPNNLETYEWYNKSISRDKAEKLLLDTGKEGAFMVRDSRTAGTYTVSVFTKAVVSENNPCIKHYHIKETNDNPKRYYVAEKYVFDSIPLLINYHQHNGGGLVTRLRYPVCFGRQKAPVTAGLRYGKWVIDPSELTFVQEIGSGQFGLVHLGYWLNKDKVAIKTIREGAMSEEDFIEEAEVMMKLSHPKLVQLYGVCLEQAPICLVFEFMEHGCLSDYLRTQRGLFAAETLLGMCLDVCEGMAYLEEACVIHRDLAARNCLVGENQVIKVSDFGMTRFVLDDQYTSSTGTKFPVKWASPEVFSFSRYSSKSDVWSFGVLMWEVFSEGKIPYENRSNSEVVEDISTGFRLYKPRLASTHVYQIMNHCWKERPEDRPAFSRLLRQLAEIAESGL

[2] = molecular target: Mast/stem cell growth factor receptor Kit (Homo sapiens, UniProt P10721); experiment: Inhibition of c-Kit after 45 mins by radiometric phosphate incorporation assay
[3] = molecular target: Mitogen-activated protein kinase 1 (Homo sapiens, UniProt P28482); experiment: Inhibition of ERK2
[4] = molecular target: RAF proto-oncogene serine/threonine-protein kinase (Homo sapiens, UniProt P04049); experiment: Inhibition of C-RAF
[5] = molecular target: Tyrosine-protein kinase ZAP-70 (Homo sapiens, UniProt P43403); experiment: Inhibition of ZAP70
[6] = molecular target: Protein kinase C theta type (Homo sapiens, UniProt Q04759); experiment: Inhibition of PKCtheta
[7] = molecular target: Tyrosine-protein kinase ABL1 (Homo sapiens, UniProt P00519); experiment: Inhibition of ABL
[8] = molecular target: RAC-alpha serine/threonine-protein kinase (Homo sapiens, UniProt P31749); experiment: Inhibition of AKT1
[9] = Inhibition of AMPK
Aurora kinase A = Aurora kinase A (Homo sapiens, UniProt O14965); experiment: Inhibition of AURORA A
[10] = molecular target: Calcium/calmodulin-dependent protein kinase type 1D (Homo sapiens, UniProt Q8IU85); experiment: Inhibition of CAMK1D
[11] = molecular target: Calcium/calmodulin-dependent protein kinase type IV (Homo sapiens, UniProt Q16566); experiment: Inhibition of CAMK4
[12] = molecular target: Mitogen-activated protein kinase kinase kinase 8 (Homo sapiens, UniProt P41279); experiment: Inhibition of COT
[13] = molecular target: Tyrosine-protein kinase CSK (Homo sapiens, UniProt P41240); experiment: Inhibition of CSK
[14] = molecular target: Dual specificity tyrosine-phosphorylation-regulated kinase 1A (Homo sapiens, UniProt Q13627); experiment: Inhibition of DYRK1A
Focal adhesion kinase 1 = Focal adhesion kinase 1 (Homo sapiens, UniProt Q05397); experiment: Inhibition of FAK
[15] = molecular target: T2, Receptor-type tyrosine-protein kinase FLT3 (Homo sapiens, UniProt P36888); experiment: Inhibition of FLT3
T2 sequence (P36888 whole entry): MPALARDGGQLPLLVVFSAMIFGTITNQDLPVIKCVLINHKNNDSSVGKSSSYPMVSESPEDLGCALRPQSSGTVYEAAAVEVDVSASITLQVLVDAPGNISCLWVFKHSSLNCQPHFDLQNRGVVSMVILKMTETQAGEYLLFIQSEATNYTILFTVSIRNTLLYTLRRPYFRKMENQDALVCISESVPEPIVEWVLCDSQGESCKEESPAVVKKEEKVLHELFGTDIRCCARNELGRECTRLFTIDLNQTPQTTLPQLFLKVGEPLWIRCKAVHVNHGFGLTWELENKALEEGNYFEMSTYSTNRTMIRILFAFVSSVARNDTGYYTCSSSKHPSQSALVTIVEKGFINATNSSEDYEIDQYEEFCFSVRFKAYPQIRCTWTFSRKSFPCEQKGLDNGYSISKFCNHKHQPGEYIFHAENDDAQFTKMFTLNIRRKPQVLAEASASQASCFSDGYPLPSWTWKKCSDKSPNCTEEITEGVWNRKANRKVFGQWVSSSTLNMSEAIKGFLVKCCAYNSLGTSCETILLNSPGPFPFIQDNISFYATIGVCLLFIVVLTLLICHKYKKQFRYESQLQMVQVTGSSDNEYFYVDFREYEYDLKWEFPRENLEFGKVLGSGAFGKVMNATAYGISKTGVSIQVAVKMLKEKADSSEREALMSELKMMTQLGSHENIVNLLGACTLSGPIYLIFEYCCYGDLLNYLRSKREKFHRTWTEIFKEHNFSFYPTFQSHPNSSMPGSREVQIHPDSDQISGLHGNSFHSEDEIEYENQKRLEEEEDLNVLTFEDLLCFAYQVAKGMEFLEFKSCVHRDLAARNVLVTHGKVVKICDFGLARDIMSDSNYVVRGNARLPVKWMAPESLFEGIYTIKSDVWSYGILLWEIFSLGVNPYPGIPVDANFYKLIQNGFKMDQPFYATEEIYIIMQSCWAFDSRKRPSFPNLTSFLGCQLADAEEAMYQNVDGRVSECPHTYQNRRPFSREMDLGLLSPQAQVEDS

[16] = molecular target: Macrophage colony-stimulating factor 1 receptor (Homo sapiens, UniProt P07333); experiment: Inhibition of FMS
[17] = molecular target: Indoleamine 2,3-dioxygenase 1 (Homo sapiens, UniProt P14902); experiment: Inhibition of IDO1
Insulin receptor = Insulin receptor (Homo sapiens, UniProt P06213); experiment: Inhibition of IR
[18] = molecular target: Serine/threonine-protein kinase 3 (Homo sapiens, UniProt Q13188); experiment: Inhibition of MST2
[19] = molecular target: Serine/threonine-protein kinase Nek1 (Homo sapiens, UniProt Q96PY6); experiment: Inhibition of NEK1
[20] = molecular target: Mitogen-activated protein kinase 14 (Homo sapiens, UniProt Q16539); experiment: Inhibition of P38alpha
[21] = molecular target: Mitogen-activated protein kinase 11 (Homo sapiens, UniProt Q15759); experiment: Inhibition of P38beta
[22] = molecular target: Protein kinase C beta type (Homo sapiens, UniProt P05771); experiment: Inhibition of PKCbeta
[23] = molecular target: Proto-oncogene tyrosine-protein kinase ROS (Homo sapiens, UniProt P08922); experiment: Inhibition of ROS
[24] = molecular target: Ribosomal protein S6 kinase alpha-1 (Homo sapiens, UniProt Q15418); experiment: Inhibition of RSK1
[25] = molecular target: Mitogen-activated protein kinase kinase kinase 7 (Homo sapiens, UniProt O43318); experiment: Inhibition of TAK1
[26] = molecular target: Serine/threonine-protein kinase TBK1 (Homo sapiens, UniProt Q9UHD2); experiment: Inhibition of TBK1

Mast/stem cell growth factor receptor Kit, sequence (P10721 whole entry): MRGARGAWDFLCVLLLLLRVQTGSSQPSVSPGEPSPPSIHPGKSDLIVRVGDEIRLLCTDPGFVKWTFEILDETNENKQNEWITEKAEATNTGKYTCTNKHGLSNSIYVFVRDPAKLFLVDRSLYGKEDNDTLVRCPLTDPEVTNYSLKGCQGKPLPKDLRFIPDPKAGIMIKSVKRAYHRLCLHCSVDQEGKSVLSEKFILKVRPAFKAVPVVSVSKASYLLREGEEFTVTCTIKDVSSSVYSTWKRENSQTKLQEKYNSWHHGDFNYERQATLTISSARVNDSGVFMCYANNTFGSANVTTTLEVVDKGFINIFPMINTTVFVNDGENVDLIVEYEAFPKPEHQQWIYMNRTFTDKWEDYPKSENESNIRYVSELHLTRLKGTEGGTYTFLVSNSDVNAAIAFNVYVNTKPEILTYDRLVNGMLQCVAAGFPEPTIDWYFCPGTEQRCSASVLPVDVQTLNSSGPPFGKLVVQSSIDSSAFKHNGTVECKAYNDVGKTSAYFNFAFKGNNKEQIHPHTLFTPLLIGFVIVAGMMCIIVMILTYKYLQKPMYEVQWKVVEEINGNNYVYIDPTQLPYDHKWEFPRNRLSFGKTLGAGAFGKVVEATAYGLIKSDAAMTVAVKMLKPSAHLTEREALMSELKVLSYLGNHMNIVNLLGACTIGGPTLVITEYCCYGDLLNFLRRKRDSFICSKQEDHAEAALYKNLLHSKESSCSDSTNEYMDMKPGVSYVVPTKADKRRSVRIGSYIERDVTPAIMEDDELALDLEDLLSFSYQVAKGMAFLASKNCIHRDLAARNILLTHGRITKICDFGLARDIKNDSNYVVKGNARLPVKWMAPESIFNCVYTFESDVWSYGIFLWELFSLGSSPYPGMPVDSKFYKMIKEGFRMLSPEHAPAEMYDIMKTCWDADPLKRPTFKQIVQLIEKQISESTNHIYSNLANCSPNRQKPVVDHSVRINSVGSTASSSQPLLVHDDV
Mitogen-activated protein kinase 11, sequence (Q15759 whole entry): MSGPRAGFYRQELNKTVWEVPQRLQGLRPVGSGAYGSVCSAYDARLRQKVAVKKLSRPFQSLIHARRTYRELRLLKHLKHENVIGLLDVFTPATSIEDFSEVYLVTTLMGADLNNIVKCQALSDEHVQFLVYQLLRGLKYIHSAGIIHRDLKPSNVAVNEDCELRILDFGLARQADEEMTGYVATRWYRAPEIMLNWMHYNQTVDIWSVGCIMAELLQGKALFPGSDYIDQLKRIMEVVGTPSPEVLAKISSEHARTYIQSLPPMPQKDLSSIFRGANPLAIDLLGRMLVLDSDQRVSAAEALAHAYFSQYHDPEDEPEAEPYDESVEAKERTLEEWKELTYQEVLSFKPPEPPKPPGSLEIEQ
Insulin receptor, sequence (P06213 28-758 limits assumed): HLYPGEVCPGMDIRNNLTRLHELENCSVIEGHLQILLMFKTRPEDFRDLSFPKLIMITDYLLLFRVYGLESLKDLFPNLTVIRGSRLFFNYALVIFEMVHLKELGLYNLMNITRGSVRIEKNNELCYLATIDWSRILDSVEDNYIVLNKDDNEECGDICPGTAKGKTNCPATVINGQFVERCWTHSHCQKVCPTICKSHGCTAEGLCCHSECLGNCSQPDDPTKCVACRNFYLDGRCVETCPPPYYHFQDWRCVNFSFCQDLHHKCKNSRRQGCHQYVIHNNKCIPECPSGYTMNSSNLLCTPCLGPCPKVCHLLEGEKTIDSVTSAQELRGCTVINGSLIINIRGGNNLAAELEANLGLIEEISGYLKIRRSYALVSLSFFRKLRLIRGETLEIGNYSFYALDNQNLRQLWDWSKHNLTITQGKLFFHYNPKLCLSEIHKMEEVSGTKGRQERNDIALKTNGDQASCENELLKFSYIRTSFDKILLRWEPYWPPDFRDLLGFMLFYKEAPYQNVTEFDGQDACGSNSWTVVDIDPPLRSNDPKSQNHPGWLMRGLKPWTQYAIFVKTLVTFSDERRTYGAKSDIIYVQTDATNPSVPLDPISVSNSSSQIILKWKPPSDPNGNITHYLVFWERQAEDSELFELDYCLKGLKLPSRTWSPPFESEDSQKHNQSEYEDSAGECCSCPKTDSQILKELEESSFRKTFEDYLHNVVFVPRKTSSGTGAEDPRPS
Insulin receptor, sequence (P06213 763-1382 limits assumed): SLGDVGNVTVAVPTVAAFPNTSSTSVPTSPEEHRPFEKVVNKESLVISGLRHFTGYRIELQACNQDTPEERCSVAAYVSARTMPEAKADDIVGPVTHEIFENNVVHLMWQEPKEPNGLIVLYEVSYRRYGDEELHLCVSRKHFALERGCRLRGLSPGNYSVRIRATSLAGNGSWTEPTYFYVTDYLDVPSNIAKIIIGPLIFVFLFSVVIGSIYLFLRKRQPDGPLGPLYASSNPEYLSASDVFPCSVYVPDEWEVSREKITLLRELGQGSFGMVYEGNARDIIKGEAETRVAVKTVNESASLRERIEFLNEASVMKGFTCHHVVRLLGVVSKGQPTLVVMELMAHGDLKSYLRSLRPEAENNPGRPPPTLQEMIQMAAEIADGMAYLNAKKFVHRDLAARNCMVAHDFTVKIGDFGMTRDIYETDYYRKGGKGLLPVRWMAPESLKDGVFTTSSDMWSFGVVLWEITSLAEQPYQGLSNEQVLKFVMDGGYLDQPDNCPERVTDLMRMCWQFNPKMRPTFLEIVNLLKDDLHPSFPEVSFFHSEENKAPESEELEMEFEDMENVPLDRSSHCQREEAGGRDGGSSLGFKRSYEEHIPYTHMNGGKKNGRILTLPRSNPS
Tyrosine-protein kinase CSK, sequence (P41240 whole entry): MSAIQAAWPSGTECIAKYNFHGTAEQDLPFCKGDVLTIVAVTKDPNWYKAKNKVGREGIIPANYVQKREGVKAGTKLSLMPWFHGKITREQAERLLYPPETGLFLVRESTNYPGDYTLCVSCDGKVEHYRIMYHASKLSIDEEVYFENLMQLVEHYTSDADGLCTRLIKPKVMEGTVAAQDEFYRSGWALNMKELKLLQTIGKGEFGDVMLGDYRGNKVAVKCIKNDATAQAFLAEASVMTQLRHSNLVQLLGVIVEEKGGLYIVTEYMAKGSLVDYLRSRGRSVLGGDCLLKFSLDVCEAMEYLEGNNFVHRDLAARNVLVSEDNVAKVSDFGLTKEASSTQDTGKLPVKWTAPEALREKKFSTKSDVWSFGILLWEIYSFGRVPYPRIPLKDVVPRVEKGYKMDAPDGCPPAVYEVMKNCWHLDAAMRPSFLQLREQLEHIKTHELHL
Protein kinase C theta type, sequence (Q04759 whole entry): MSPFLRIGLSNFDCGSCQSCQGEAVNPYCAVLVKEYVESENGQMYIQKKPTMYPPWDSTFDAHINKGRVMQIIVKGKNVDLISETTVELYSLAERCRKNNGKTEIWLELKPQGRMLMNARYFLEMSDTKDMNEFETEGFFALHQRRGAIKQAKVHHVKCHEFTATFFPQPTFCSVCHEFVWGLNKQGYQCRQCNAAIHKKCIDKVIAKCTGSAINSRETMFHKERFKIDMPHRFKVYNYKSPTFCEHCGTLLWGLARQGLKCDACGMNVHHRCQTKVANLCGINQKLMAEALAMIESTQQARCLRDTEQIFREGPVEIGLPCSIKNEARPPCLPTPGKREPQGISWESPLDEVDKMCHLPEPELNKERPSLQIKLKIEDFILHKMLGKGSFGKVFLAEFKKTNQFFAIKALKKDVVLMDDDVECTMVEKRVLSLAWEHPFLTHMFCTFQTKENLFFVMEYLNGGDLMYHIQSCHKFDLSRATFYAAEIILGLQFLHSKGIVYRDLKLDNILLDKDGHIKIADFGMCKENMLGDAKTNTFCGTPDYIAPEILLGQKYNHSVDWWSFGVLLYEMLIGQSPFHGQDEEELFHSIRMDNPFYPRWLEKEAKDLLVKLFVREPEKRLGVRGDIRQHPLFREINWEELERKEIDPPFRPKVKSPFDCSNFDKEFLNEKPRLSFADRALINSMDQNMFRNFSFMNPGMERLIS
Serine/threonine-protein kinase 3, sequence (Q13188 whole entry): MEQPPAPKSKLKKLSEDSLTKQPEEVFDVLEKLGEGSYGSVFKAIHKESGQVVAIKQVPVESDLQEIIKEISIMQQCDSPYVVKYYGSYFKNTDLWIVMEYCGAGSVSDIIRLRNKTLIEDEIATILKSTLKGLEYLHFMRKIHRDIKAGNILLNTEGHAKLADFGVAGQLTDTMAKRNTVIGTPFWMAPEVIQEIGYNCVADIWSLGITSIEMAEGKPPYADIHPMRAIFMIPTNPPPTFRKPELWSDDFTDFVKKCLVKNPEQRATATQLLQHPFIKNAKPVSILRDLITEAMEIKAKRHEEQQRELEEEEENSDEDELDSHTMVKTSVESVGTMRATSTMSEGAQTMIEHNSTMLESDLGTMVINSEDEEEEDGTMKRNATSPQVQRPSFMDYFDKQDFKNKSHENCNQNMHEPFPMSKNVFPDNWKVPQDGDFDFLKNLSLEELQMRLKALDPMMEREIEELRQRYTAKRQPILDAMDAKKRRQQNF
Protein kinase C beta type, sequence (P05771 whole entry): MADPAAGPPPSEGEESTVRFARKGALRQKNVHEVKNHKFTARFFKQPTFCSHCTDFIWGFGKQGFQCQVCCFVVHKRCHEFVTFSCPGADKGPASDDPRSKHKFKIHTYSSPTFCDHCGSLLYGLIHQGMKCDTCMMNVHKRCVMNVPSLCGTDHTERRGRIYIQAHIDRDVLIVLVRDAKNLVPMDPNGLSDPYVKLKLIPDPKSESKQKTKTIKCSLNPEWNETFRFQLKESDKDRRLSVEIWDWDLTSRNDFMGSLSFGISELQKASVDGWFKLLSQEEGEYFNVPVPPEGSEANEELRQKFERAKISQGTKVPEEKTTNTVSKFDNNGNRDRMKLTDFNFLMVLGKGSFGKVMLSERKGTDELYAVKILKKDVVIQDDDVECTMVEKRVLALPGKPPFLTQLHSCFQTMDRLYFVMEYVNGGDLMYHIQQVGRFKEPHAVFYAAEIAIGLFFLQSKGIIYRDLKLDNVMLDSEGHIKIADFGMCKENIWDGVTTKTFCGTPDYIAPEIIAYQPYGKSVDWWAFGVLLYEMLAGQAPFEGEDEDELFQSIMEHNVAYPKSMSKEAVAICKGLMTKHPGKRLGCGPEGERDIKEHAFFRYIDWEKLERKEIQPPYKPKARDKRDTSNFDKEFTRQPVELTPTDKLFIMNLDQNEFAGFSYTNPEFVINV

CNc1cncc(-c2c[nH]c(=O)c(NC(=O)c3ccc(N4CCC[C@H]4CN4CCCC4)cc3)c2)n1
Ki [1]: 7 nM
Ki [2]: 200 nM
Ki [3]: > 2000 nM
Ki [4]: > 2000 nM
Ki [5]: > 2000 nM
Ki [6]: > 2000 nM
Ki [7]: > 1000 nM
Ki [8]: > 1000 nM
Ki [9]: > 1000 nM
Ki (Aurora kinase A): > 1000 nM
Ki [10]: > 1000 nM
Ki [11]: > 1000 nM
Ki [12]: > 1000 nM
Ki [13]: > 1000 nM
Ki [14]: > 1000 nM
Ki (Focal adhesion kinase 1): > 1000 nM
Ki [15]: 20 nM
Ki [16]: > 1000 nM
Ki [17]: > 1000 nM
Ki (Insulin receptor): > 1000 nM
Ki [18]: > 1000 nM
Ki [19]: > 1000 nM
Ki [20]: > 1000 nM
Ki [21]: > 1000 nM
Ki [22]: > 1000 nM
Ki [23]: > 1000 nM
Ki [24]: > 1000 nM
Ki [25]: 860 nM
Ki [26]: > 1000 nM
